Data as given in BigSolDB 2.1.

Cc1cccc(Nc2ccccc2C(=O)O)c1C
solubility (mole fraction)
Details	in DMAc	in DMF	in acetone	in cyclohexane	in ethanol	in ethyl acetate	in isopropanol	in n-heptane	in n-hexane	in water
298 K	0.122	0.0171	0.0054	0.0009	0.0019	0.0039	0.002	0.0011	0.0013	–
303 K	0.138	0.0208	0.0055	0.0009	0.002	0.0045	0.0024	0.0013	0.0014	–
308 K	0.153	0.0275	0.0065	0.0011	0.0024	0.0055	0.0026	0.0015	0.0016	–
313 K	0.165	0.0327	0.007	0.0012	0.0032	0.0071	0.0033	0.0017	0.0018	1e-05
318 K	0.175	0.0391	0.0084	0.0014	0.0037	0.0079	0.004	0.0018	0.002	3e-05
323 K	0.19	0.0551	0.0098	0.0016	0.0042	0.0096	0.0053	0.0022	0.0024	5e-05
